Source: patent publication US12721823B2, “Methods and compositions for treatment of low circulating testosterone conditions” (University of Florida Research Foundation, Inc., priority 2021, dated 2026)

How the values were obtained:
Type in all cases: in vivo, rat
[1] = system: Sprague-Dawley rats; assay: Elevated plus maze (EPM)
Excerpt: (§1) Sixty-four G1 rats (32 control and 32 sevoflurane exposed) and 122 G2 rats, which were not exposed to sevoflurane anesthesia and were subjected to animal facility rearing only, were studied. The G1 rats were sequentially evaluated in the EPM starting on ~P125, PPI of the acoustic startle response on ~P135 and MWM starting ~on P145 (FIG. 1). One half of these animals were sacrificed on ≥P160 to collect trunk blood, brain and testis and ovarian tissues for further analyses. The rest of these animals were physically restrained for 30 min on ≥P160 to measure corticosterone responses, followed by collection of tissue samples (as above) for further analyses. The G2 rats were evaluated in the EPM starting on P60 and PPI of startle on P70 (FIG. 1). One half of these animals were sacrificed on ≥P95 to collect trunk blood and brain tissue samples for further analyses, and the rest of these animals were tested for the corticosterone responses to physical restraint for 30 min on ≥P95 before collecting the trunk blood and brain tissue samples.
The EPM studies were performed using an EPM apparatus and BIO-EPM 3C video tracking software (EB Instruments, Pinellas Park, FL) during the light phase of the dark-light cycle as previously described by our laboratory.^5-7 If a fall occurred, the animal was removed from the study (one G1 male rat was removed from the study for this reason).

[2] = system: Sprague-Dawley rats; assay: Prepulse inhibition (PPI) of startle; conditions: for startle amplitudes: all experimental groups; for PPI of startle at PP3: vs offspring of unexposed parents
Excerpt: as §1
The PPI of startle tests were performed using a SR-Lab startle apparatus (San Diego Instruments, San Diego, CA) as previously described.^5-7 The % PPI for each prepulse level was calculated using the following formula: % PPI=100×[(pulse alone)−(prepulse+pulse)]/pulse alone. Data were collected as Vmax amplitude.

[3] = system: Sprague-Dawley rats; assay: Morris water maze (MWM) test
Excerpt: as §1
The MWM tests were run using a MWM apparatus and data were analyzed using a computer-based video tracking system (Water 2020; HVS Image) as previously described. 5

[4] = system: Sprague-Dawley rats; assay: Serum FSH, LH, testosterone (Tn), estradiol (E2) by ELISA and testis weight
Excerpt: Sixty-four G1 rats (32 control and 32 sevoflurane exposed) and 122 G2 rats, which were not exposed to sevoflurane anesthesia and were subjected to animal facility rearing only, were studied. The G1 rats were sequentially evaluated in the EPM starting on ~P125, PPI of the acoustic startle response on ~P135 and MWM starting ~on P145 (FIG. 1). One half of these animals were sacrificed on ≥P160 to collect trunk blood, brain and testis and ovarian tissues for further analyses. The rest of these animals were physically restrained for 30 min on ≥P160 to measure corticosterone responses, followed by collection of tissue samples (as above) for further analyses. The G2 rats were evaluated in the EPM starting on P60 and PPI of startle on P70 (FIG. 1). One half of these animals were sacrificed on ≥P95 to collect trunk blood and brain tissue samples for further analyses, and the rest of these animals were tested for the corticosterone responses to physical restraint for 30 min on ≥P95 before collecting the trunk blood and brain tissue samples. After decapitation, the trunk blood samples were collected and centrifuged at 4° C., 1000 g for 15 min, and then kept at -80° C. for hormone assays. The brain was removed from the skull onto ice pads. The hypothalamus was isolated by making an anterior cut at the level of the optic chiasm, a posterior coronal section anterior to the mammillary bodies, two sagittal cuts parallel to the lateral ventricles and a dorsal horizontal cut at the level of the anterior commissure, as described elsewhere.^19 The hippocampus was isolated from the respective blocks. All tissue samples were placed in vials filled with RNAlater solution (Invitrogen, Carlsbad, CA) and then stored at -80° C. Testis tissue was removed and washed with 0.9% saline before weighing. Sperm were isolated from the caudal epididymis of adult males into PBS with 1% BSA at 37° C. using a swim-up assay. After settling for 30 min, sperm-containing supernatant was centrifuged for 5 min at 4000 rpm. Sperm pellets were stored at -80° C. After separation from the adipose tissues, ovaries were stored at -80° C. Hormone analyses in serum samples isolated from G1 and G2 rats were performed using commercially available kits according to the manufacturer's instructions. Serum concentrations of FSH (CSB-E06869r) and LH (CSB-E12654r) were quantified using ELISA kits (CUSABIO TECHNOLOGY LLC, Houston, TX, USA). Serum Tn and E2 concentrations were measured using ELISA kits (582701, Cayman Chemical Company, Ann Arbor, MI, USA and E[…]-100, Calbiotech, Spring Valley, CA, USA, respectively).

[5] = system: Sprague-Dawley F0 male rats; assay: Long-term serum testosterone after SEVO with or without surgery and TBI; conditions: young adult F0 male rats exposed to SEVO; FIG. 11A
Protocol: The Sprague-Dawley F0 male rats in the TBI group had SEVO exposure for 40 min to conduct a craniectomy and injury hub implantation on P60. After 60 min of recovery, they were reanesthetized with SEVO for 3 min to induce moderate TBI using a midline fluid percussion injury (FPI) model. The TBI+SEVO group had additional exposure to SEVO for 3 h on P62, P64, and P66. These subsequent exposures to SEVO, which may be needed to treat accompanying conditions, such as orthopedic, abdominal, or thoracic injuries, were used to study whether the effects of SEVO, surgery, and TBI interact to induce their effects. The Sham group had all exposures to SEVO and craniectomy but not TBI. The SEVO-SEVO group had all exposures to SEVO only. The control group had none of these procedures, except being placed in a new cage for an equivalent duration and number of times. A subset of F0 male rats was sacrificed on P66 1 h after the last exposure to SEVO for 3 h or at equivalent timepoints to collect blood to study acute neuroendocrine effects (FIG. 11A). The serum corticosterone levels before and after physical restraint for 30 min were measured ion P140. Ten days after completing the in vivo studies, the same rats were sacrificed and trunk blood samples were collected to measure serum levels of testosterone.

[6] = G1 male rats, more than two months after exposure, vs control
[7] = G2 females, all groups of parental exposure
[8] = G2 male offspring of both exposed parents
[9] = G2 males, parental exposure to sevoflurane

## FCOC(C(F)(F)F)C(F)(F)F [sevoflurane, 1,1,1,3,3,3-hexafluoro-2-(fluoromethoxy)propane]
[1]; G1 female rats, vs control
  EPM parameters (time in open arms, number of crossings, distance traveled): no significant between-subjects effect
[1]; [6]
  distance traveled, EPM: did not differ
  number of crossings, EPM: did not differ
  time spent in open arms, EPM: spent less time in open arms
[1]; [7]
  distances traveled, EPM: similar
  number of crossings, EPM: similar
  time spent in open arms, EPM: similar
[1]; [8]
  distance traveled, EPM: shorter distances
  number of crossings, EPM: fewer crossings
[1]; G2 male progeny of exposed fathers and exposed mothers, vs offspring of control parents
  time spent in open arms, EPM: spent less time in open arms
[1]; G2 male progeny of sevoflurane exposed fathers and unexposed mothers, vs offspring of control parents
  time spent in open arms, EPM: spent less time in open arms
[1]; G2 male progeny of unexposed fathers and exposed mothers, vs offspring of control parents
  time spent in open arms, EPM: spent less time in open arms
[2]; G1 male rats, prepulse intensity of 3 dB, vs control
  PPI of startle responses: impaired PPI of startle responses
[2]; G2 female rats
  startle amplitudes: similar
[2]; G2 female rats, parental sevoflurane exposure
  PPI of startle: no significant treatment effect
[2]; G2 male rats
  startle amplitudes: similar
[2]; G2 males of both exposed parents
  PPI of startle at PP3: reduced PPI of startle
[2]; G2 males of control fathers and exposed mothers
  PPI of startle at PP3: reduced PPI of startle
[3]; G1 female rats
  MWM tests: no significant group effects
[3]; G1 male rats, 5-day training period
  MWM escape latencies: no significant between-subjects effect
[3]; G1 male rats, probe test
  crossings over the escape platform location, MWM: fewer crossings
  time in the target quadrant of the MWM: significantly less time
[4]; G1 female rats, vs control
  serum levels of E2 (estradiol): not different
  serum levels of FSH: no significant treatment effects
  serum levels of LH: no significant treatment effects
  serum levels of Tn (testosterone): not different
[4]; G1 male rats, more than 3 months after sevoflurane exposure, vs control
  serum levels of Tn (testosterone): significantly increased
[4]; G1 male rats, vs control
  serum levels of FSH: not different
  serum levels of LH: increased
  testis weight: significantly reduced
[4]; [9]
  serum levels of Tn: no significant treatment effects
  testis weight: no significant treatment effects
[5]
  serum levels of testosterone: long-term increase
